Measured values taken from patent publication US7582803B2 (Amgen Inc., priority 2005, dated 2009).

Target: T1, human GPR40 (Homo sapiens, UniProt O14842)
T1 construct: expressed in transfected cells; host or cells: CHO cells
Experiment: Cell-based aequorin assay
Details: CHO cells stably transfected with GPR40 and aequorin; 0.01% HSA; aequorin luminescence; read-out: Relative EC50
Procedure: Cell-based aequorin assays were employed to characterize the modulatory activity of compounds on the GPR40 signaling pathway. In an exemplary assay, CHO cells were stably transfected with both GPR40 and Aequorin (Euroscreen). Cells were detached from the tissue culture dish with 2 mL of trypsin (0.25% (w/v)). Trypsinization was halted with 28 mL of Hanks Buffered Salt Solution containing 20 mM Hepes (H/HBSS) and 0.01% fatty acid-free human serum albumin (HSA). Coelantrazine is added to 1 ug/mL, and the cells were incubated for 2 hours at room temperature. Compounds were dissolved in DMSO for preparation of 10 mM stock solutions. Compounds were diluted in H/HBSS containing 0.01% HSA. Serial dilutions of the test compounds were prepared to determine dose response.
Aequorin luminescence measurements were made using an EG&G Berthold 96-well luminometer, and the response was measured over a 20 second interval after cells and compounds were mixed. The maximum relative light units was plotted to determine dose response. The EC50 (effective concentration to reach 50% maximal response) was determined from the dose response plot.
Table 1 presents representative data (EC50 values) obtained for exemplary compounds of the invention for the relative activation of human GPR40. […]

T1 sequence (O14842 whole entry): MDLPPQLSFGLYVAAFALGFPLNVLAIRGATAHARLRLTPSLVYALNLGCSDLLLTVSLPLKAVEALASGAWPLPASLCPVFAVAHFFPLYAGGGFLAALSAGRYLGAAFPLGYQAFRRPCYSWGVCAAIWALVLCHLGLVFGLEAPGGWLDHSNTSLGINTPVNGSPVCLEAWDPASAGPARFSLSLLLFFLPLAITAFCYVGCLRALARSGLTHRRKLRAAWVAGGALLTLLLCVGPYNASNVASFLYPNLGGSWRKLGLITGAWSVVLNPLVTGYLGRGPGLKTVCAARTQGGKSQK

| EC50 [nM] | Compound |
| --- | --- |
| 100 to 1000 | O=C(O)CC(c1ccc(OC2CCc3cc(Br)ccc32)cc1)n1cccn1 (stereo not shown) [Example 47, 3-(4-(5-Bromo-2,3-dihydro-1H-inden-1-yloxy)phenyl)-3-(1H-pyrazol-1-yl)propanoic acid] |
| 10 to 100 | CC#C[C@@H](CC(=O)O)c1ccc(OC2CCc3cc(-c4cccc(OC(F)(F)F)c4)ccc32)cc1 (stereo partly drawn) [Example 50, (3S)-3-(4-(5-(3-(Trifluoromethoxy)phenyl)-2,3-dihydro-1H-inden-1-yloxy)phenyl)hex-4-ynoic acid] |
| 100 to 1000 | Cc1cnc(C(CC(=O)O)c2ccc(OC3Cc4ccccc4C3)cc2)o1 (stereo not shown) [Example 51, 3-(4-(2,3-Dihydro-1H-inden-2-yloxy)phenyl)-3-(5-methyloxazol-2-yl)propanoic acid] |
| 10 to 100 | CC#C[C@@H](CC(=O)O)c1ccc(OC2CCc3cc(C#N)ccc32)cc1 (stereo partly drawn) [Example 54, (3S)-3-(4-(5-Cyano-2,3-dihydro-1H-inden-1-yloxy)phenyl)hex-4-ynoic acid] |
| 100 to 1000 | CC#C[C@@H](CC(=O)O)c1ccc(OC2CCc3cc(-c4cc(OC)ccc4F)ccc32)cc1 (stereo partly drawn) [Example 55, (3S)-3-(4-(5-(2-Fluoro-5-methoxyphenyl)-2,3-dihydro-1H-inden-1-yloxy)phenyl)hex-4-ynoic acid] |
| 1000 to 10000 | COc1ccc(F)c(-c2ccc3c(c2)CCC3Oc2ccc([C@H](C=C(C)C)CC(=O)O)cc2)c1 (stereo partly shown) [Example 56] |
| 100 to 1000 | COc1ccc(F)c(-c2ccc3c(c2)CCC3Oc2ccc([C@@H](C=C(C)C)CC(=O)O)cc2)c1 (stereo partly shown) [Example 57] |
| 1000 to 10000 | Cn1ccnc1[C@@H](CC(=O)O)c1ccc(OC2CCc3cc(Cl)ccc32)cc1 (stereo partly drawn) [Example 58, (3S)-3-(4-(5-Chloro-2,3-dihydro-1H-inden-1-yloxy)phenyl)-3-(1-methyl-1H-imidazol-2-yl)propanoic acid] |
| > 10000 | CC#C[C@H](CC(=O)O)c1ccc(OC2CCc3cc(-c4cccc(OCC)c4)ccc32)cc1 (stereo partly drawn) [Example 59, (3R)-3-(4-(5-(3-Ethoxyphenyl)-2,3-dihydro-1H-inden-1-yloxy)phenyl)hex-4-ynoic acid] |
| > 10000 | CC#C[C@H](CC(=O)O)c1ccc(OC2CCc3cc(-c4ccc5c(c4)OCO5)ccc32)cc1 (stereo partly drawn) [Example 60, (3R)-3-(4-(5-(Benzo[d][1,3]dioxol-5-yl)-2,3-dihydro-1H-inden-1-yloxy)phenyl)hex-4-ynoic acid] |
| > 10000 | CC#C[C@H](CC(=O)O)c1ccc(OC2CCc3cc(-c4cccc(OC)c4OC)ccc32)cc1 (stereo partly drawn) [Example 61, (3R)-3-(4-(5-(2,3-Dimethoxyphenyl)-2,3-dihydro-1H-inden-1-yloxy)phenyl)hex-4-ynoic acid] |
| > 10000 | CC#C[C@H](CC(=O)O)c1ccc(OC2CCc3cc(-c4cccc(OC)c4)ccc32)cc1 (stereo partly drawn) [Example 62, (3R)-3-(4-(5-(3-Methoxyphenyl)-2,3-dihydro-1H-inden-1-yloxy)phenyl)hex-4-ynoic acid] |
| > 10000 | CC#C[C@H](CC(=O)O)c1ccc(OC2CCc3cc(-c4cccc(OC(F)(F)F)c4)ccc32)cc1 (stereo partly drawn) [Example 63, (3R)-3-(4-(5-(3-(trifluoromethoxy)phenyl)-2,3-dihydro-1H-inden-1-yloxy)phenyl)hex-4-ynoic acid] |
| > 10000 | CC#C[C@H](CC(=O)O)c1ccc(OC2CCc3cc(-c4c(C)cc(C)cc4C)ccc32)cc1 (stereo partly drawn) [Example 64, (3R)-3-(4-(5-Mesityl-2,3-dihydro-1H-inden-1-yloxy)phenyl)hex-4-ynoic acid] |
| > 10000 | CC#C[C@H](CC(=O)O)c1ccc(OC2CCc3cc(-c4ccccc4OCC)ccc32)cc1 (stereo partly drawn) [Example 65, (3R)-3-(4-(5-(2-Ethoxyphenyl)-2,3-dihydro-1H-inden-1-yloxy)phenyl)hex-4-ynoic acid] |
| > 10000 | CC#C[C@H](CC(=O)O)c1ccc(OC2CCc3cc(-c4cc(OCC)ccc4F)ccc32)cc1 (stereo partly drawn) [Example 66, (3R)-3-(4-(5-(5-Ethoxy-2-fluorophenyl)-2,3-dihydro-1H-inden-1-yloxy)phenyl)hex-4-ynoic acid] |
| > 10000 | CC#C[C@H](CC(=O)O)c1ccc(OC2CCc3cc(-c4cccc(OC)c4F)ccc32)cc1 (stereo partly drawn) [Example 67, (3R)-3-(4-(5-(2-Fluoro-3-methoxyphenyl)-2,3-dihydro-1H-inden-1-yloxy)phenyl)hex-4-ynoic acid] |
| 1000 to 10000 | CC#C[C@H](CC(=O)O)c1ccc(OCC2CCCCC2)cc1 [Example 68, (R)-3-(4-(Cyclohexylmethoxy)phenyl)hex-4-ynoic acid] |
| 100 to 1000 | CC#C[C@@H](CC(=O)O)c1ccc(OCCC2CCCCC2)cc1 [Example 69, (S)-3-(4-(2-cyclohexylethoxy)phenyl)hex-4-ynoic acid] |
| 100 to 1000 | CC#C[C@@H](CC(=O)O)c1ccc(OCCC2CCCC2)cc1 [Example 70, (S)-3-(4-(2-cyclopentylethoxy)phenyl)hex-4-ynoic acid] |
| 100 to 1000 | Cn1ccnc1[C@@H](CC(=O)O)c1ccc(OCc2ccc3c(c2)C(C)(C)CCC3(C)C)cc1 [Example 71, (S)-3-(1-Methyl-1H-imidazol-2-yl)-3-[4-(5,5,8,8-tetramethyl-5,6,7,8-tetrahydro-naphthalen-2-ylmethoxy)-phenyl]-propionic acid] |
| 100 to 1000 | Cn1ncnc1[C@@H](CC(=O)O)c1ccc(OCc2ccc3c(c2)C(C)(C)CCC3(C)C)cc1 [Example 72, (S)-3-(2-Methyl-2H-[1,2,4]triazol-3-yl)-3-[4-(5,5,8,8-tetramethyl-5,6,7,8-tetrahydro-naphthalen-2-ylmethoxy)-phenyl]-propionic acid] |
| 10 to 100 | Cn1nncc1[C@@H](CC(=O)O)c1ccc(OCc2ccc3c(c2)C(C)(C)CCC3(C)C)cc1 [Example 73, (S)-3-(3-methyl-3H-1,2,3-triazol-4-yl)-3-(4-((5,5,8,8-tetramethyl-5,6,7,8-tetrahydronaphthalen-2-yl)methoxy)phenyl)propanoic acid] |
| 100 to 1000 | Cn1cncc1[C@@H](CC(=O)O)c1ccc(OCc2ccc3c(c2)C(C)(C)CCC3(C)C)cc1 [Example 74, (S)-3-(1-methyl-1H-imidazol-5-yl)-3-(4-((5,5,8,8-tetramethyl-5,6,7,8-tetrahydronaphthalen-2-yl)methoxy)phenyl)propanoic acid] |
| 100 to 1000 | CC1(C)CCC(C)(C)c2cc(COc3ccc([C@H](CC(=O)O)c4cnco4)cc3)ccc21 [Example 75, (S)-3-(Oxazol-5-yl)-3-(4-((5,5,8,8-tetramethyl-5,6,7,8-tetrahydronaphthalen-2-yl)methoxy)phenyl)propanoic acid] |
| 10 to 100 | CC1(C)CCC(C)(C)c2cc(COc3ccc([C@H](CC(=O)O)c4ccon4)cc3)ccc21 [Example 76, (S)-3-(Isoxazol-3-yl)-3-(4-((5,5,8,8-tetramethyl-5,6,7,8-tetrahydronaphthalen-2-yl)methoxy)phenyl)propanoic acid] |
| 1000 to 10000 | CC1(C)CCC(C)(C)c2cc(COc3ccc([C@@H](CC(=O)O)c4ccon4)cc3)ccc21 [Example 77, (R)-3-(Isoxazol-3-yl)-3-(4-((5,5,8,8-tetramethyl-5,6,7,8-tetrahydronaphthalen-2-yl)methoxy)phenyl)propanoic acid] |
| 100 to 1000 | Cn1ccnc1[C@@H](CC(=O)O)c1ccc(OCc2ccc3c(c2)CCCC3)cc1 [Example 80, (S)-3-(i-Methyl-1H-imidazol-2-yl)-3-[4-(5,6,7,8-tetrahydro-naphthalen-2-ylmethoxy)-phenyl]-propionic acid] |
